Results published in ChEMBL document CHEMBL1177879, “Transition metal complexes of a new hexadentate macroacyclic N2O4-donor Schiff base: inhibitory activity against bacteria and fungi” (2010).

Assays:
Conditions in all cases: read-out: IZ
Aspergillus niger = experiment: Antifungal activity against Aspergillus niger at 50 ug after 48 hrs by agar well diffusion assay; type: functional
Candida albicans = experiment: Antifungal activity against Candida albicans at 50 ug after 48 hrs by agar well diffusion assay; type: functional
Escherichia coli = experiment: Antibacterial activity against Escherichia coli at 50 ug after 48 hrs by agar well diffusion assay; type: functional
[1] = system: Bacillus cirroflagellosus; experiment: Antibacterial activity against Bacillus cirroflagellosus at 50 ug after 48 hrs by agar well diffusion assay

COC1=CC(=O)C[C@@H](C)[C@]12Oc1c(Cl)c(OC)cc(OC)c1C2=O [GRISEOFULVIN]
zone of inhibition at 50 µg/disc (Aspergillus niger): 29 mm | zone of inhibition at 50 µg/disc (Candida albicans): 29.3 mm

O=NN(CC(=O)N/N=C\C=N\NC(=O)CN(N=O)c1ccccc1)c1ccccc1
zone of inhibition at 50 µg/disc (Escherichia coli): 16.3 mm | zone of inhibition at 50 µg/disc (Aspergillus niger): 16.7 mm | zone of inhibition at 50 µg/disc (Candida albicans): 19.3 mm | zone of inhibition at 50 µg/disc [1]: 16 mm

CCn1cc(C(=O)O)c(=O)c2cc(F)c(N3CCNCC3)cc21 [NORFLOXACIN]
zone of inhibition at 50 µg/disc (Escherichia coli): 28.3 mm | zone of inhibition at 50 µg/disc [1]: 28.3 mm
